Cc1cc(C)c(C(=O)P(=O)(c2ccccc2)c2ccccc2)c(C)c1
solubility (mole fraction)
Conditions | in acetone | in acetonitrile | in ethanol | in ethyl acetate | in isobutanol | in isopropanol | in methanol | in methyl acetate | in n-butanol | in n-propanol
273.15 K | 0.0685 | 0.0242 | 0.0761 | 0.043 | 0.0761 | 0.0262 | 0.11 | 0.0504 | 0.0795 | 0.0827
278.15 K | 0.0844 | 0.0312 | 0.0895 | 0.0529 | 0.0882 | 0.0366 | 0.125 | 0.0616 | 0.092 | 0.0983
283.15 K | 0.101 | 0.0482 | 0.107 | 0.0621 | 0.109 | 0.0544 | 0.145 | 0.0767 | 0.116 | 0.118
288.15 K | 0.12 | 0.0687 | 0.13 | 0.0819 | 0.133 | 0.0755 | 0.172 | 0.0963 | 0.139 | 0.139
293.15 K | 0.143 | 0.101 | 0.154 | 0.102 | 0.159 | 0.11 | 0.195 | 0.12 | 0.162 | 0.168
298.15 K | 0.169 | 0.144 | 0.184 | 0.126 | 0.187 | 0.158 | 0.233 | 0.149 | 0.2 | 0.196
303.15 K | 0.197 | 0.197 | 0.218 | 0.16 | 0.22 | 0.21 | 0.272 | 0.186 | 0.236 | 0.226
308.15 K | 0.232 | 0.271 | 0.266 | 0.194 | 0.256 | 0.276 | 0.298 | 0.229 | 0.271 | 0.262

From BigSolDB 2.1
